Laboratory results as given in patent US9113629B2, “4-amino-6-(4-substituted-phenyl)-picolinates and 6-amino-2-(4-substituted-phenyl)-pyrimidine-4-carboxylates and their use as herbicides” (DOW AGROSCIENCES LLC, priority 2013, dated 2015).
Where two headings read alike, the source gives them in different places.

Key:
[1] = tested on: Key Broadleaf Weed and Crop Species; assay: Post-emergent Test II herbicidal activity (Table 5); format: in vivo; conditions: post-emergence, 336 h, 14 days after application; for pest or weed control at 70 g/ha: application rate 70 g ai/ha; for pest or weed control at 140 g/ha: application rate 140 g ai/ha
Outline: (§1)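 Percent injury, 0 (none) to 100 (complete kill), was judged visually 14 d after spraying young plants at the first or second true leaf stage with compound in an acetone/DMSO aqueous carrier at 187 L/ha. Plants were kept in a greenhouse at 23–29 °C by day.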

[2] = tested on: Key Grass and Sedge Weeds as well as Grass Crops; assay: Post-emergent Test II herbicidal activity (Table 6); format: in vivo; conditions: post-emergence, 336 h; for pest or weed control at 70 g/ha: 70 g ai/ha; for pest or weed control at 140 g/ha: 140 g ai/ha
Outline: as §1

[3] = ABUTH: velvetleaf (Abutilon theophrasti), read-out: Visual Growth Reduction (%) 14 Days After Application, ABUTH
[4] = AMARE: redroot pigweed (Amaranthus retroflexus), read-out: Visual Growth Reduction (%) 14 Days After Application, AMARE
[5] = BRSNN: oilseed-rape, canola (Brassica napus), read-out: Visual Growth Reduction (%) 14 Days After Application, BRSNN
[6] = CHEAL: lambsquarters (Chenopodium album), read-out: Visual Growth Reduction (%) 14 Days After Application, CHEAL
[7] = EPHHL: wild poinsettia (Euphorbia heterophylla), read-out: Visual Growth Reduction (%) 14 Days After Application, EPHHL
[8] = HELAN: sunflower (Helianthus annuus), read-out: Visual Growth Reduction (%) 14 Days After Application, HELAN
[9] = VIOTR: wild pansy (Viola tricolor), read-out: Visual Growth Reduction (%) 14 Days After Application, VIOTR
[10] = CYPES: yellow nutsedge (Cyperus esculentus), read-out: Visual Growth Reduction (%) 14 Days After Application, CYPES
[11] = DIGSA: crabgrass (Digitaria sanguinalis), read-out: Visual Growth Reduction (%) 14 Days After Application, DIGSA
[12] = ECHCG: barnyardgrass (Echinochloa crus-galli), read-out: Visual Growth Reduction (%) 14 Days After Application, ECHCG
[13] = ORYSA: rice (Oryza sativa), crop, read-out: Visual Growth Reduction (%) 14 Days After Application, ORYSA
[14] = SETFA: giant foxtail (Setaria faberi), read-out: Visual Growth Reduction (%) 14 Days After Application, SETFA
[15] = SORVU: grain sorghum (Sorghum vulgare), read-out: Visual Growth Reduction (%) 14 Days After Application, SORVU
[16] = TRZSS (wheat, Triticum aestivum), crop, read-out: Visual Growth Reduction (%) 14 Days After Application, TRZSS
[17] = ZEAMX: maize, corn (Zea mays), crop, read-out: Visual Growth Reduction (%) 14 Days After Application, ZEAMX

Q: For COC(=O)c1nc(-c2ccc(Br)c(F)c2F)c(F)c(N)c1Cl [Compound 109, methyl 4-amino-6-(4-bromo-2,3-difluorophenyl)-3-chloro-5-fluoropicolinate], which pest or weed control at 70 g/ha [1, 3] is on record?
A: Its pest or weed control at 70 g/ha is 95 to 100%.

Q: And the pest or weed control at 140 g/ha [1, 3]?
A: The pest or weed control at 140 g/ha was 95 to 100%.

Q: And the pest or weed control at 70 g/ha [1, 4]?
A: Its pest or weed control at 70 g/ha is 95 to 100%.

Q: What about the pest or weed control at 140 g/ha [1, 4] of the same compound?
A: Its pest or weed control at 140 g/ha is 95 to 100%.

Q: And the pest or weed control at 70 g/ha [1, 5]?
A: The pest or weed control at 70 g/ha was 95 to 100%.

Q: And the pest or weed control at 140 g/ha [1, 5]?
A: The pest or weed control at 140 g/ha was 95 to 100%.

Q: What about the pest or weed control at 70 g/ha [1, 6] of the same compound?
A: Its pest or weed control at 70 g/ha is 95 to 100%.

Q: What about the pest or weed control at 140 g/ha [1, 6] of the same compound?
A: The pest or weed control at 140 g/ha was 95 to 100%.

Q: What about the pest or weed control at 70 g/ha [1, 7] of the same compound?
A: The pest or weed control at 70 g/ha was 95 to 100%.

Q: And the pest or weed control at 140 g/ha [1, 7]?
A: The pest or weed control at 140 g/ha was 95 to 100%.

Q: What about the pest or weed control at 70 g/ha [1, 8] of the same compound?
A: Its pest or weed control at 70 g/ha is 0 to 29%.

Q: What about the pest or weed control at 140 g/ha [1, 8] of the same compound?
A: Its pest or weed control at 140 g/ha is 95 to 100%.

Q: What about the pest or weed control at 70 g/ha [1, 9] of the same compound?
A: The pest or weed control at 70 g/ha was 95 to 100%.

Q: And the pest or weed control at 140 g/ha [1, 9]?
A: The pest or weed control at 140 g/ha was 95 to 100%.

Q: And the pest or weed control at 70 g/ha [2, 10]?
A: Its pest or weed control at 70 g/ha is 95 to 100%.

Q: What about the pest or weed control at 140 g/ha [2, 10] of the same compound?
A: Its pest or weed control at 140 g/ha is 95 to 100%.

Q: What about the pest or weed control at 70 g/ha [2, 11] of the same compound?
A: Its pest or weed control at 70 g/ha is 85 to 94%.

Q: What about the pest or weed control at 140 g/ha [2, 11] of the same compound?
A: Its pest or weed control at 140 g/ha is 95 to 100%.

Q: What about the pest or weed control at 70 g/ha [2, 12] of the same compound?
A: Its pest or weed control at 70 g/ha is 95 to 100%.

Q: What about the pest or weed control at 140 g/ha [2, 12] of the same compound?
A: Its pest or weed control at 140 g/ha is 95 to 100%.

Q: What about the pest or weed control at 70 g/ha [2, 13] of the same compound?
A: Its pest or weed control at 70 g/ha is 45 to 59%.

Q: What about the pest or weed control at 140 g/ha [2, 13] of the same compound?
A: Its pest or weed control at 140 g/ha is 45 to 59%.

Q: And the pest or weed control at 70 g/ha [2, 14]?
A: The pest or weed control at 70 g/ha was 95 to 100%.

Q: And the pest or weed control at 140 g/ha [2, 14]?
A: The pest or weed control at 140 g/ha was 95 to 100%.

Q: And the pest or weed control at 70 g/ha [2, 15]?
A: The pest or weed control at 70 g/ha was 85 to 94%.

Q: What about the pest or weed control at 140 g/ha [2, 15] of the same compound?
A: Its pest or weed control at 140 g/ha is 95 to 100%.

Q: What about the pest or weed control at 70 g/ha [2, 16] of the same compound?
A: The pest or weed control at 70 g/ha was 45 to 59%.

Q: And the pest or weed control at 140 g/ha [2, 16]?
A: Its pest or weed control at 140 g/ha is 60 to 74%.

Q: And the pest or weed control at 70 g/ha [2, 17]?
A: The pest or weed control at 70 g/ha was 85 to 94%.

Q: What about the pest or weed control at 140 g/ha [2, 17] of the same compound?
A: The pest or weed control at 140 g/ha was 85 to 94%.
